ChEMBL document CHEMBL1201862, “PubChem BioAssay data set” (2004)
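Interpolation was linear, between the two tested concentrations surrounding the appropriate level; five concentrations were tested over 48 hours in 96-well plates. The concentration for 50% growth inhibition is given as GI50.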 Active and inactive are the calls of the source. Cut-off read from the data, not from the text of the source: active = GI50 up to about 1.1 µM and inactive = higher.

Experiments:
Assay in all cases: NCI-60 cell line screen, 48 h
RXF 393 = tested on: RXF 393
ACHN = tested on: ACHN
RPMI-8226 = tested on: RPMI-8226
MCF7 = tested on: MCF7
IGROV-1 = tested on: IGROV-1
HCT-116 = tested on: HCT-116
SK-OV-3 = tested on: SK-OV-3
MOLT-4 = tested on: MOLT-4
SF-295 = tested on: SF-295
HOP-92 = tested on: HOP-92
NCI-H23 = tested on: NCI-H23
UO-31 = tested on: UO-31
OVCAR-8 = tested on: OVCAR-8
COLO 205 = tested on: COLO 205
HCT-15 = tested on: HCT-15
NCI-H460 = tested on: NCI-H460
HCC 2998 = tested on: HCC 2998
K562 = tested on: K562
MDA-N = tested on: MDA-N
NCI-H226 = tested on: NCI-H226

SMILES	GI50 (RXF 393)	GI50 (ACHN)	GI50 (RPMI-8226)	GI50 (MCF7)	GI50 (IGROV-1)	GI50 (HCT-116)	GI50 (SK-OV-3)	GI50 (MOLT-4)	GI50 (SF-295)	GI50 (HOP-92)	GI50 (NCI-H23)	GI50 (UO-31)	GI50 (OVCAR-8)	GI50 (COLO 205)	GI50 (HCT-15)	GI50 (NCI-H460)	GI50 (HCC 2998)	GI50 (K562)	GI50 (MDA-N)	GI50 (NCI-H226)
CC(=O)C(C(=O)c1ccc(C)cc1)[C@@H]1OC(C)(C)O[C@@H]1[C@H]1COC(C)(C)O1 (stereo partly drawn)	9.62 µM (inactive)	9.59 µM (inactive)	2.36 µM (inactive)	3.48 µM (inactive)	12.7 µM (inactive)	3.72 µM (inactive)	51.2 µM (inactive)	2.61 µM (inactive)	37.7 µM (inactive)	35.2 µM (inactive)	9.53 µM (inactive)	12.7 µM (inactive)	7.26 µM (inactive)	18.1 µM (inactive)	8.3 µM	25.1 µM (inactive)	25.1 µM (inactive)	2.05 µM (inactive)	7.21 µM (inactive)	
CC(=O)c1c2c(cc3c1CCC3)CCC2		> 100 µM (inactive)	76 µM (inactive)	> 100 µM (inactive)	> 100 µM (inactive)	70.3 µM (inactive)	> 100 µM (inactive)	20.6 µM (inactive)	> 100 µM (inactive)		> 100 µM (inactive)	54.5 µM (inactive)	> 100 µM (inactive)	> 100 µM (inactive)	> 100 µM	> 100 µM (inactive)	> 100 µM (inactive)	20.7 µM (inactive)	> 100 µM (inactive)	82 µM (inactive)
CC(C)c1cc(Cl)nc(Cl)n1	> 100 µM (inactive)	> 100 µM (inactive)	> 100 µM (inactive)	> 100 µM (inactive)	> 100 µM (inactive)	> 100 µM (inactive)	> 100 µM (inactive)	> 100 µM (inactive)	> 100 µM (inactive)		> 100 µM (inactive)	> 100 µM (inactive)	> 100 µM (inactive)	> 100 µM (inactive)	> 100 µM	> 100 µM (inactive)	> 100 µM (inactive)	> 100 µM (inactive)	> 100 µM (inactive)	> 100 µM (inactive)
CC1(C)OCC(C2OC(OC(=O)c3ccc([N+](=O)[O-])cc3)C3OC(C)(C)OC23)O1 (stereo not drawn)	58.1 µM (inactive)	60.5 µM (inactive)	> 100 µM (inactive)	> 100 µM (inactive)	> 100 µM (inactive)	> 100 µM (inactive)	> 100 µM (inactive)	> 100 µM (inactive)	53.2 µM (inactive)		> 100 µM (inactive)	66.1 µM (inactive)	> 100 µM (inactive)	> 100 µM (inactive)	> 100 µM	> 100 µM (inactive)	> 100 µM (inactive)	> 100 µM (inactive)	> 100 µM (inactive)	> 100 µM (inactive)
CCC/C(Cl)=N/OC(NC(=O)OCC)(C(F)(F)F)C(F)(F)F	19 µM (inactive)	18.3 µM (inactive)	23.1 µM (inactive)	23.6 µM (inactive)	16.6 µM (inactive)	19.4 µM (inactive)		32.5 µM (inactive)	> 100 µM (inactive)	20.3 µM (inactive)	25.1 µM (inactive)	19.6 µM (inactive)	33.9 µM (inactive)	19.8 µM (inactive)	21.6 µM	> 100 µM (inactive)		25.6 µM (inactive)	20.5 µM (inactive)	> 100 µM (inactive)
CC(O)C(O)C(O)C(/C=N\Nc1ccccc1)=N/Nc1ccccc1 (stereo not drawn)		10.8 µM (inactive)	18.3 µM (inactive)	10.5 µM (inactive)	8.49 µM (inactive)	15.3 µM (inactive)	15.6 µM (inactive)	18.7 µM (inactive)	11.6 µM (inactive)	14.7 µM (inactive)	11.9 µM (inactive)	12.2 µM (inactive)	13.2 µM (inactive)	14.3 µM (inactive)	12.4 µM	10.7 µM (inactive)	10.8 µM (inactive)	6.78 µM (inactive)	12.6 µM (inactive)	
Cc1cccc2c(=O)c3cccc(CC(=O)O)c3oc12		> 100 µM (inactive)	> 100 µM (inactive)	> 100 µM (inactive)	> 100 µM (inactive)	> 100 µM (inactive)	> 100 µM (inactive)	> 100 µM (inactive)	> 100 µM (inactive)	> 100 µM (inactive)	> 100 µM (inactive)	> 100 µM (inactive)	> 100 µM (inactive)	> 100 µM (inactive)	> 100 µM	> 100 µM (inactive)	> 100 µM (inactive)	> 100 µM (inactive)	> 100 µM (inactive)	> 100 µM (inactive)
O=c1c(O)c(-c2cc(O)c(O)c(O)c2)oc2cc(O)cc(O)c12 [MYRICETIN]	20.8 µM (inactive)	79.8 µM (inactive)	36.1 µM (inactive)	18.5 µM (inactive)	33.9 µM (inactive)		> 100 µM (inactive)	54.6 µM (inactive)	20.3 µM (inactive)	46.7 µM (inactive)	18.4 µM (inactive)	90.8 µM (inactive)	17.9 µM (inactive)	65.9 µM (inactive)	24.8 µM	20.4 µM (inactive)		35.6 µM (inactive)	10 µM (inactive)	25.6 µM (inactive)
